Reference: US9937225B2, “Topical formulations and uses thereof” (OCULAR TECHNOLOGIES SARL, priority 2012, dated 2018)

Legend:
[1] = Visual appearance of mixed nanomicellar formulation; assay type: physicochemical; conditions: for Final formulation / Resuspend in water / Final formulation (make up with 2X buffer containing 0.01% Oc-40): 1001 4 wt %; for Result: solvent evaporation, HCO-60 4 wt %, Octoxynol-40 0.01 wt %
Protocol: Mixed nanomicellar formulation encapsulating compound 1001 was prepared by solvent evaporation method in two steps: 1) Preparation of basic formulation and 2) rehydration. In step one, compound 1001, HCO-60 and octoxynol-40 were dissolved separately in 0.3 mL of ethyl acetate. These three solutions were mixed together in 15-mL centrifuge tube. The resultant mixture was vortexed to obtain a homogenous solution. Ethyl acetate solvent was removed with speed vacuum to obtain a solid thin film. The residue was kept overnight under high vacuum at room temperature to remove residual organic solvent. In step two, the resultant thin film was hydrated with 1 mL of double distilled deionized water by vortexing the solution. The rehydrated formulation was suspended in 2× phosphate buffer solution, (pH 6.5). It was filtered through 0.2 μm nylon filter membrane to remove the unentrapped drug aggregates and other foreign particulates. […]
The preparation of MNF encapsulating compound 1001 (neat oil) can be divided into two steps. As an example for the development of 3.0 wt % HCO-40 or HCO-60 MNF encapsulating 0.4% compound 1001 is described below. […] To this melt polymer compound 1001 (˜20 mg), thermostated at 40° C., was added and mixed for homogenous distribution. […] (in refrigerator).
This aqueous solution was allowed to reach room temperature, under natural conditions. The pH of the solution was adjusted to 5.5 and the volume was made up with 2× phosphate buffer saline (pH 5.5) containing octoxynol-40 (0.01 wt %) and PVP-K-90 (1.2 wt %). The formulation was filtered through 0.2 μm nylon filter to remove any foreign material and obtain a clear homogenous aqueous RX-1001 formulation.
The results obtained for physical appearance of the mixture, different phases, at different temperatures and appearance of final formulation are summarized in Tables 2a-2c. […]

[2] = Mixed nanomicellar size and polydispersity index (Zetasizer); assay type: physicochemical; conditions: solvent evaporation; HCO-60 4 wt %, Octoxynol-40 0.01 wt %, 1001 initially added 0.120 wt %
Protocol: The formulation size and polydispersity index were determined with Zetasizer, Malvern Instruments, NJ. In brief, approximately 1 ml of each formulation was transferred to a cuvette and placed in the instrument. A laser beam of light was used to determine the mixed nanomicellar size.
Weight percent of drug loaded into MNF was determined following the method for entrapment efficiency. Size and polydispersity index of the formulations was determined with Malvern zetasizer as described above. The formulations appear clear and have small size and narrow size distribution.

[3] = melt at 40° C., cooled to room temperature, HCO-40 0.5 wt %
[4] = melt at 40° C., cooled to room temperature, HCO-40 0.75 wt %
[5] = melt at 40° C., cooled to room temperature, HCO-40 1.0 wt %
[6] = melt at 40° C., cooled to room temperature, HCO-40 1.25 wt %
[7] = melt at 40° C., cooled to room temperature, HCO-40 1.5 wt %
[8] = melt at 40° C., cooled to room temperature, HCO-40 1.75 wt %
[9] = melt at 40° C., cooled to room temperature, HCO-40 2.0 wt %
[10] = melt at 40° C., cooled to room temperature, HCO-40 2.25 wt %
[11] = melt at 40° C., cooled to room temperature, HCO-40 2.5 wt %
[12] = melt at 40° C., cooled to room temperature, HCO-40 2.75 wt %
[13] = melt at 40° C., cooled to room temperature, HCO-40 3.0 wt %
[14] = melt at 40° C., cooled to room temperature, HCO-40 4.0 wt %

C#CC[C@@H](O)/C=C/C=C/C#C[C@@H](O)CCCC(=O)OC(C)C [compound 1001]
Final formulation [1, 3]: Emulsion | Resuspend in water [1, 3]: Emulsion | Final formulation [1, 4]: Emulsion | Resuspend in water [1, 4]: Emulsion | Final formulation [1, 5]: Emulsion | Resuspend in water [1, 5]: Emulsion | Final formulation [1, 6]: Emulsion | Resuspend in water [1, 6]: Emulsion | Final formulation [1, 7]: Emulsion | Resuspend in water [1, 7]: Emulsion | Final formulation [1, 8]: Emulsion | Resuspend in water [1, 8]: Emulsion | Final formulation [1, 9]: Emulsion | Resuspend in water [1, 9]: Emulsion | Final formulation [1, 10]: Emulsion | Resuspend in water [1, 10]: Emulsion | Final formulation [1, 11]: Yellow color | Resuspend in water [1, 11]: Yellow | Final formulation [1, 12]: Pale yellow | Resuspend in water [1, 12]: Pale yellow | Final formulation [1, 13]: Clear | Resuspend in water [1, 13]: Clear | Final formulation [1, 14]: Clear | Resuspend in water [1, 14]: Clear | Resuspend in water ([1]; melt cooled to 25° C., placed at 4° C., back to room temperature, water at 40° C., HCO-40 0.5 wt %): Emulsion | Resuspend in water ([1]; melt cooled to 25° C., placed at 4° C., back to room temperature, water at 40° C., HCO-40 0.75 wt %): Emulsion | Resuspend in water ([1]; melt cooled to 25° C., placed at 4° C., back to room temperature, water at 40° C., HCO-40 1.0 wt %): Emulsion | Resuspend in water ([1]; melt cooled to 25° C., placed at 4° C., back to room temperature, water at 40° C., HCO-40 1.25 wt %): Emulsion | Resuspend in water ([1]; melt cooled to 25° C., placed at 4° C., back to room temperature, water at 40° C., HCO-40 1.5 wt %): Emulsion | Resuspend in water ([1]; melt cooled to 25° C., placed at 4° C., back to room temperature, water at 40° C., HCO-40 1.75 wt %): Emulsion | Resuspend in water ([1]; melt cooled to 25° C., placed at 4° C., back to room temperature, water at 40° C., HCO-40 2.0 wt %): Emulsion | Resuspend in water ([1]; melt cooled to 25° C., placed at 4° C., back to room temperature, water at 40° C., HCO-40 2.25 wt %): Emulsion | Resuspend in water ([1]; melt cooled to 25° C., placed at 4° C., back to room temperature, water at 40° C., HCO-40 2.5 wt %): Yellow | Resuspend in water ([1]; melt cooled to 25° C., placed at 4° C., back to room temperature, water at 40° C., HCO-40 2.75 wt %): Pale yellow | Resuspend in water ([1]; melt cooled to 25° C., placed at 4° C., back to room temperature, water at 40° C., HCO-40 3.0 wt %): Clear | Resuspend in water ([1]; melt cooled to 25° C., placed at 4° C., back to room temperature, water at 40° C., HCO-40 4.0 wt %): Clear | Final formulation ([1]; melt cooled to 25° C., placed at 4° C., back to room temperature, HCO-40 0.5 wt %): Emulsion | Final formulation ([1]; melt cooled to 25° C., placed at 4° C., back to room temperature, HCO-40 0.75 wt %): Emulsion | Final formulation ([1]; melt cooled to 25° C., placed at 4° C., back to room temperature, HCO-40 1.0 wt %): Emulsion | Final formulation ([1]; melt cooled to 25° C., placed at 4° C., back to room temperature, HCO-40 1.25 wt %): Emulsion | Final formulation ([1]; melt cooled to 25° C., placed at 4° C., back to room temperature, HCO-40 1.5 wt %): Emulsion | Final formulation ([1]; melt cooled to 25° C., placed at 4° C., back to room temperature, HCO-40 1.75 wt %): Emulsion | Final formulation ([1]; melt cooled to 25° C., placed at 4° C., back to room temperature, HCO-40 2.0 wt %): Emulsion | Final formulation ([1]; melt cooled to 25° C., placed at 4° C., back to room temperature, HCO-40 2.25 wt %): Emulsion | Final formulation ([1]; melt cooled to 25° C., placed at 4° C., back to room temperature, HCO-40 2.5 wt %): Yellow color | Final formulation ([1]; melt cooled to 25° C., placed at 4° C., back to room temperature, HCO-40 2.75 wt %): Very pale yellow | Final formulation ([1]; melt cooled to 25° C., placed at 4° C., back to room temperature, HCO-40 3.0 wt %): Clear | Final formulation ([1]; melt cooled to 25° C., placed at 4° C., back to room temperature, HCO-40 4.0 wt %): Clear | Final formulation (make up with 2X buffer containing 0.01% Oc-40) ([1]; melt method, HCO-60 1.0 wt %): Emulsion | Resuspend in water ([1]; melt method, HCO-60 1.0 wt %, water at 40°): Emulsion | Final formulation (make up with 2X buffer containing 0.01% Oc-40) ([1]; melt method, HCO-60 2.0 wt %): Pale yellow | Resuspend in water ([1]; melt method, HCO-60 2.0 wt %, water at 40°): Forms pale | Final formulation (make up with 2X buffer containing 0.01% Oc-40) ([1]; melt method, HCO-60 2.25 wt %): Pale yellow | Resuspend in water ([1]; melt method, HCO-60 2.25 wt %, water at 40°): Forms pale | Final formulation (make up with 2X buffer containing 0.01% Oc-40) ([1]; melt method, HCO-60 2.5 wt %): Pale yellow | Resuspend in water ([1]; melt method, HCO-60 2.5 wt %, water at 40°): Forms very | Final formulation (make up with 2X buffer containing 0.01% Oc-40) ([1]; melt method, HCO-60 2.75 wt %): Clear solution | Resuspend in water ([1]; melt method, HCO-60 2.75 wt %, water at 40°): Forms very | Final formulation (make up with 2X buffer containing 0.01% Oc-40) ([1]; melt method, HCO-60 3.0 wt %): Clear solution | Resuspend in water ([1]; melt method, HCO-60 3.0 wt %, water at 40°): Clear solution | Final formulation (make up with 2X buffer containing 0.01% Oc-40) ([1]; melt method, HCO-60 3.5 wt %): Clear solution | Resuspend in water ([1]; melt method, HCO-60 3.5 wt %, water at 40°): Clear solution | Final formulation (make up with 2X buffer containing 0.01% Oc-40) ([1]; melt method, HCO-60 4.0 wt %): Clear solution | Resuspend in water ([1]; melt method, HCO-60 4.0 wt %, water at 40°): Clear solution | Result ([1]; 1001 initially added 0.035 wt %): Clear/transparent | Result ([1]; 1001 initially added 0.070 wt %): Clear/transparent | Result ([1]; 1001 initially added 0.095 wt %): Clear/transparent | Result ([1]; 1001 initially added 0.120 wt %): Pale yellow color | Result ([1]; 1001 initially added 0.250 wt %): Yellow color | Result ([1]; 1001 initially added 0.300 wt %): Yellow color | Result ([1]; 1001 initially added 0.400 wt %): Yellow color | Polydispersity Index [2]: 0.320
